Like-named read-outs stand apart in the source and are kept apart here. Starred links: 1 amine or outer side, 2 acyl side, 3 side chain; linkers in the order of their positions; H or OH if unused. Non-standard residues stand in square brackets, D forms with d. Residues, ends and D or L forms follow the SMILES beside them. Groups on a side chain read outwards from the residue. *: point of attachment. C18 diacid = O=C(O)CCCCCCCCCCCCCCCCC(=O)*; γGlu = O=C(O)[C@H](CCC(=O)[*:2])N[*:1]; εLys = N[C@@H](CCCCN[*:1])C(=O)[*:2]; Aib = CC(C)(N)C(=O)O
Target: T1, human GIP receptor (Homo sapiens, UniProt P48546)
T1 construct: expressed in transfected cells; host or cells: BHK (parent line BHKTS13), clone BHK CRE luc2P hGIPR
T1 sequence (P48546 22-466): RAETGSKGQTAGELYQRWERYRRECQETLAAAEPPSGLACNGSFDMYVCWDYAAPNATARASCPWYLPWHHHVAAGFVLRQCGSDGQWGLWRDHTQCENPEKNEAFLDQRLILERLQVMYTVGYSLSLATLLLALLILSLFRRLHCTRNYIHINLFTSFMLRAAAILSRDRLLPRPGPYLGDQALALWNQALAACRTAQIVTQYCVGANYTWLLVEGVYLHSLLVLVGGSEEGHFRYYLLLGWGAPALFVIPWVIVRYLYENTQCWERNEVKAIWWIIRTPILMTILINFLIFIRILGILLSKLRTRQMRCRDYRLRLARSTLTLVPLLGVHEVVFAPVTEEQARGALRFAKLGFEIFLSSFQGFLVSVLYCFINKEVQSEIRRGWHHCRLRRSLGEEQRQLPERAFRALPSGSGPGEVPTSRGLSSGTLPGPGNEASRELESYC
Assay: In vitro functional potency, CRE luciferase reporter, whole BHK cells (hGIPR)
Format: cell-based
Details: BHK CRE luc2P hGIPR cells
Summary of the method: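 BHK CRE luc2P cells stably expressing hGIPR or hGLP-1R were seeded at 5000 cells/well overnight. They were treated 3 h at 37° C with a 12-point, 3.5-fold compound series in buffer with or without HSA, and luciferase luminescence was read. Values come from log(agonist)-response regression, averaging at least two replicates.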

[1] = hGIPR, CRE Luc 1% HSA EC50, 1% HSA
[2] = 0% HSA, read-out: hGIPR, CRE Luc 0% HSA EC50

Compound | EC50 (hGIPR, CRE Luc 0% HSA EC50, 0% HSA) | EC50 [1] | EC50 [2]
CC[C@H](C)[C@H](NC(=O)[C@H](Cc1ccccc1)NC(=O)[C@H](CCC(=O)O)NC(=O)[C@H](CCCNC(=N)N)NC(=O)[C@H](C)NC(=O)[C@H](C)NC(=O)[C@H](CCC(N)=O)NC(=O)[C@H](CCCCNC(=O)[C@@H](N)CCCCNC(=O)[C@@H](N)CCCCNC(=O)CC[C@H](NC(=O)CCCCCCCCCCCCCCCCC(=O)O)C(=O)O)NC(=O)[C@H](CCC(=O)O)NC(=O)[C@H](CC(C)C)NC(=O)[C@H](CC(C)C)NC(=O)[C@@H](NC(=O)[C@H](CO)NC(=O)[C@H](Cc1ccc(O)cc1)NC(=O)[C@H](CC(=O)O)NC(=O)[C@H](CO)NC(=O)[C@@H](NC(=O)[C@H](Cc1ccccc1)NC(=O)[C@@H](NC(=O)CNC(=O)[C@H](CCC(=O)O)NC(=O)C(C)(C)NC(=O)[C@@H](N)Cc1ccc(O)cc1)[C@@H](C)O)[C@@H](C)O)[C@@H](C)CC)C(=O)N[C@@H](CCC(=O)O)C(=O)N[C@@H](Cc1c[nH]c2ccccc12)C(=O)N[C@@H](CC(C)C)C(=O)N[C@@H](CC(C)C)C(=O)N[C@@H](CCCNC(=N)N)C(=O)NCC(=O)NCC(=O)N1CCC[C@H]1C(=O)N[C@@H](CCC(=O)O)C(=O)N[C@@H](CO)C(=O)NCC(=O)N[C@@H](C)C(=O)N1CCC[C@H]1C(=O)N1CCC[C@H]1C(=O)N1CCC[C@H]1C(=O)N[C@@H](CO)C(=O)O [Compound 28] (H-Y[Aib]EGTFTSDYSILLEK([εLys-εLys-γGlu-C18 diacid])QAAREFIEWLLRGGPESGAPPPS-OH) | 0.0066 nM | 0.0865 nM | –
CC[C@H](C)[C@H](NC(=O)[C@H](Cc1ccccc1)NC(=O)[C@H](CCC(=O)O)NC(=O)[C@H](CCC(N)=O)NC(=O)[C@H](C)NC(=O)[C@H](C)NC(=O)[C@H](CCC(N)=O)NC(=O)[C@H](CCCCNC(=O)[C@@H](N)CCCCNC(=O)[C@@H](N)CCCCNC(=O)CC[C@H](NC(=O)CCCCCCCCCCCCCCCCC(=O)O)C(=O)O)NC(=O)[C@H](CCC(=O)O)NC(=O)[C@H](CC(C)C)NC(=O)[C@H](CC(C)C)NC(=O)[C@@H](NC(=O)[C@H](CO)NC(=O)[C@H](Cc1ccc(O)cc1)NC(=O)[C@H](CC(=O)O)NC(=O)[C@H](CO)NC(=O)[C@@H](NC(=O)[C@H](Cc1ccccc1)NC(=O)[C@@H](NC(=O)CNC(=O)[C@H](CCC(=O)O)NC(=O)C(C)(C)NC(=O)[C@@H](N)Cc1ccc(O)cc1)[C@@H](C)O)[C@@H](C)O)[C@@H](C)CC)C(=O)N[C@@H](CCC(=O)O)C(=O)N[C@@H](Cc1c[nH]c2ccccc12)C(=O)N[C@@H](CC(C)C)C(=O)N[C@@H](CC(C)C)C(=O)N[C@@H](C)C(=O)NCC(=O)NCC(=O)N1CCC[C@H]1C(=O)N[C@@H](CO)C(=O)N[C@@H](CO)C(=O)NCC(=O)N[C@@H](C)C(=O)N1CCC[C@H]1C(=O)N1CCC[C@H]1C(=O)N1CCC[C@H]1C(=O)N[C@@H](CO)C(=O)O [Compound 29] (H-Y[Aib]EGTFTSDYSILLEK([εLys-εLys-γGlu-C18 diacid])QAAQEFIEWLLAGGPSSGAPPPS-OH) | – | 0.102 nM | 0.0038 nM
CC[C@H](C)[C@H](NC(=O)[C@H](Cc1ccccc1)NC(=O)[C@H](CCC(=O)O)NC(=O)[C@H](CCCNC(=N)N)NC(=O)[C@H](C)NC(=O)[C@H](C)NC(=O)[C@H](CCC(N)=O)NC(=O)[C@H](CCCCNC(=O)[C@@H](N)CCCCNC(=O)[C@@H](N)CCCCNC(=O)CC[C@H](NC(=O)CCCCCCCCCCCCCCCCC(=O)O)C(=O)O)NC(=O)[C@H](CCC(=O)O)NC(=O)[C@H](CC(C)C)NC(=O)[C@H](CC(C)C)NC(=O)[C@@H](NC(=O)[C@H](CO)NC(=O)[C@H](Cc1ccc(O)cc1)NC(=O)[C@H](CC(=O)O)NC(=O)[C@H](CO)NC(=O)[C@@H](NC(=O)[C@H](Cc1ccccc1)NC(=O)[C@@H](NC(=O)CNC(=O)[C@H](CCC(=O)O)NC(=O)C(C)(C)NC(=O)[C@@H](N)Cc1ccc(O)cc1)[C@@H](C)O)[C@@H](C)O)[C@@H](C)CC)C(=O)N[C@@H](CCC(=O)O)C(=O)N[C@@H](Cc1c[nH]c2ccccc12)C(=O)N[C@@H](CC(C)C)C(=O)N[C@@H](CC(C)C)C(=O)N[C@@H](C)C(=O)NCC(=O)NCC(=O)N1CCC[C@H]1C(=O)N[C@@H](CO)C(=O)N[C@@H](CO)C(=O)NCC(=O)N[C@@H](C)C(=O)N1CCC[C@H]1C(=O)N1CCC[C@H]1C(=O)N1CCC[C@H]1C(=O)N[C@@H](CO)C(=O)O [Compound 31] (H-Y[Aib]EGTFTSDYSILLEK([εLys-εLys-γGlu-C18 diacid])QAAREFIEWLLAGGPSSGAPPPS-OH) | – | 0.189 nM | 0.0047 nM
